Reference: ChEMBL document CHEMBL1268871, “Structure and functions of gamma-dodecalactone isolated from Antrodia camphorata for NK cell activation” (Bioorg Med Chem, 2010)
Blank lines part the entries; values can stand above or below the compound they belong to. Active and inactive are the calls of the source. The rule behind the calls is not given here.

Columns and labels:
[1] = species: Homo sapiens; test: Immunomodulatory activity in human PMNC assessed as induction of CD69 expression at 375 uM within 10 mins by FACS analysis; type: functional
[2] = Metabolic stability in human NK cells assessed as formation of 4-hydroxydodecanoic acid at 375 uM after 3 hrs by RP-HPLC analysis; type: ADME, cell-based
[3] = system: PBMC; test: Cellular uptake in human PBMC pellet solution after 2 hrs by GC analysis; type: ADME, cell-based
[4] = system: PBMC; test: Cellular uptake in human PBMC after 2 hrs by GC analysis; type: ADME, cell-based
[5] = system: PBMC; test: Cellular uptake in human PBMC pellet solution after 30 mins by GC analysis; type: ADME, cell-based; settings: 0.5 h
[6] = system: PBMC; test: Cellular uptake in human PBMC nucleus assessed per mg of protein after 2 hrs by GC analysis; type: ADME, cell-based
[7] = system: PBMC; test: Cellular uptake in human PBMC after 20 mins by GC analysis; type: ADME, cell-based
[8] = system: HepG2; test: Immunomodulatory activity in human HepG2 cells assessed as induction of innate immunity-mediated cytotoxicity at 375 uM after 24 hrs by fluorescence microscopy; type: functional, cell-based
[9] = system: PBMC; test: Cellular uptake in human PBMC pellet solution after 1 hr by GC analysis; type: ADME, cell-based
[10] = system: PBMC; test: Cellular uptake in human PBMC nucleus after 30 mins by GC analysis; type: ADME, cell-based; settings: 0.5 h
[11] = system: PBMC; test: Cellular uptake in human PBMC pellet solution after 3 hrs by GC analysis; type: ADME, cell-based
[12] = system: PBMC; test: Cellular uptake in human PBMC nucleus after 1 hr by GC analysis; type: ADME, cell-based
[13] = system: NK; test: Immunomodulatory activity in human NK cells assessed as induction of CD69 gene expression at 375 uM after 4 hrs by RT-PCR analysis; type: functional, cell-based
[14] = system: PBMC; test: Cellular uptake in human PBMC after 1 hr by GC analysis; type: ADME, cell-based
[15] = Immunomodulatory activity in human PMNC assessed as induction of CD69 expression at 20 ng/ml after 24 hrs by FACS analysis; type: functional
[16] = system: PBMC; test: Cellular uptake in human PBMC nucleus residual solution after 10 mins by GC analysis; type: ADME, cell-based
[17] = system: PBMC; test: Cellular uptake in human PBMC after 10 mins by GC analysis; type: ADME, cell-based
[18] = species: Homo sapiens; test: Immunomodulatory activity in human PMNC assessed as induction of CD69 expression after 24 hrs by FITC-conjugated flow cytometry; type: functional
[19] = system: PBMC; test: Cellular uptake in human PBMC after 30 mins by GC analysis; type: ADME, cell-based; settings: 0.5 h
[20] = system: PBMC; test: Cellular uptake in human PBMC nucleus residual solution after 20 mins by GC analysis; type: ADME, cell-based
[21] = system: PBMC; test: Cellular uptake in human PBMC residual solution after 3 hrs by GC analysis; type: ADME, cell-based
[22] = system: PBMC; test: Cellular uptake in human PBMC residual solution after 1 hr by GC analysis; type: ADME, cell-based
[23] = system: PBMC; test: Cellular uptake in human PBMC nucleus after 10 mins by GC analysis; type: ADME, cell-based
[24] = Cytotoxicity human PMNC up to 375 uM after 48 hrs by WST assay
[25] = system: PBMC; test: Cellular uptake in human PBMC nucleus assessed per mg of protein after 30 mins by GC analysis; type: ADME, cell-based; settings: 0.5 h
[26] = system: PBMC; test: Cellular uptake in human PBMC nucleus after 2 hrs by GC analysis; type: ADME, cell-based
[27] = Immunomodulatory activity in human PMNC assessed as induction of CD69 expression at 200 uM after 24 hrs by FACS analysis; type: functional
[28] = system: PBMC; test: Cellular uptake in human PBMC nucleus assessed per mg of protein after 10 mins by GC analysis; type: ADME, cell-based
[29] = Immunomodulatory activity in human PMNC assessed as induction of GraB expression at 375 uM after 24 hrs by FITC-conjugated flow cytometry relative to control; type: functional
[30] = system: PBMC; test: Cellular uptake in human PBMC after 3 hrs by GC analysis; type: ADME, cell-based
[31] = Immunomodulatory activity in human PMNC assessed as induction of CD69 expression at 375 uM after 24 hrs by FACS analysis; type: functional
[32] = system: PBMC; test: Cellular uptake in human PBMC residual solution after 10 mins by GC analysis; type: ADME, cell-based
[33] = system: NK; test: Immunomodulatory activity in human NK cells assessed as induction of IL2 gene expression at 375 uM after 4 hrs by RT-PCR analysis; type: functional, cell-based
[34] = system: NK; test: Immunomodulatory activity in human NK cells assessed as induction of FASLG gene expression at 375 uM after 4 hrs by RT-PCR analysis; type: functional, cell-based
[35] = system: PBMC; test: Cellular uptake in human PBMC nucleus residual solution after 2 hrs by GC analysis; type: ADME, cell-based
[36] = system: PBMC; test: Cellular uptake in human PBMC nucleus residual solution after 30 mins by GC analysis; type: ADME, cell-based; settings: 0.5 h
[37] = Metabolic stability in human NK cells assessed as conversion to 4-hydroxydodecanoic acid at 375 uM after 45 mins by RP-HPLC analysis; type: ADME, cell-based; settings: 0.75 h
[38] = system: NK; test: Immunomodulatory activity in human NK cells assessed as induction of TNF gene expression at 375 uM after 4 hrs by RT-PCR analysis; type: functional, cell-based
[39] = system: PBMC; test: Cellular uptake in human PBMC pellet solution after 10 mins by GC analysis; type: ADME, cell-based
[40] = system: PBMC; test: Cellular uptake in human PBMC nucleus assessed per mg of protein after 1 hr by GC analysis; type: ADME, cell-based
[41] = system: PBMC; test: Cellular uptake in human PBMC residual solution after 2 hrs by GC analysis; type: ADME, cell-based
[42] = system: PBMC; test: Cellular uptake in human PBMC nucleus assessed per mg of protein after 20 mins by GC analysis; type: ADME, cell-based
[43] = system: PBMC; test: Cellular uptake in human PBMC residual solution after 30 mins by GC analysis; type: ADME, cell-based; settings: 0.5 h
[44] = system: PBMC; test: Cellular uptake in human PBMC nucleus residual solution after 1 hr by GC analysis; type: ADME, cell-based
[45] = system: NK; test: Immunomodulatory activity in human NK cells assessed as induction of IFNG gene expression at 375 uM after 4 hrs by RT-PCR analysis; type: functional, cell-based
[46] = Immunomodulatory activity in human PMNC assessed as induction of FasL expression at 375 uM after 24 hrs by FITC-conjugated flow cytometry relative to control; type: functional
[47] = system: NK; test: Immunomodulatory activity in human NK cells assessed as induction of GZMB gene expression at 375 uM after 4 hrs by RT-PCR analysis; type: functional, cell-based
[48] = system: PBMC; test: Cellular uptake in human PBMC residual solution after 20 mins by GC analysis; type: ADME, cell-based
[49] = Cellular uptake in human NK cells at 500 uM after 20 mins by GC analysis; type: ADME, cell-based
[50] = Immunomodulatory activity in human PMNC assessed as induction of CD69 expression at 100 uM after 24 hrs by FACS analysis; type: functional
[51] = system: PBMC; test: Cellular uptake in human PBMC nucleus after 20 mins by GC analysis; type: ADME, cell-based
[52] = system: PBMC; test: Cellular uptake in human PBMC pellet solution after 20 mins by GC analysis; type: ADME, cell-based

Stability [2]: Unstable
SMILES: CCCCCCCCC(O)CCC(=O)O (centres undefined)
Activity [1]: Active

SMILES: CCCCCCCC[C@H](O)CCC(=O)O
Activity [1]: Active

SMILES: CCCCCCCC[C@@H](O)CCC(=O)O
Activity [1]: Active

Drug uptake [3]: 0 µg
Drug uptake [4]: 0.009 µg
Drug uptake [5]: 0.008 µg
Drug uptake [6]: 0 ng
Drug uptake [7]: 0.022 µg
Drug uptake [9]: 0.007 µg
Drug uptake [10]: 0.618 mg/mL
Drug uptake [11]: 0 µg
Drug uptake [12]: 0.9 mg/mL
Drug uptake [14]: 0.017 µg
Drug uptake [16]: 8.44 ng
Drug uptake [17]: 0.02 µg
Drug uptake [19]: 0.027 µg
Drug uptake [20]: 9.95 ng
Drug uptake [21]: 0 µg
Drug uptake [22]: 0.01 µg
Drug uptake [23]: 0.791 mg/mL
Drug uptake [25]: 0.016 ng
Drug uptake [26]: 0.658 mg/mL
Drug uptake [28]: 0.011 ng
Drug uptake [30]: 0 µg
Drug uptake [32]: 0.02 µg
Drug uptake [35]: 0 ng
Drug uptake [36]: 9.95 ng
Activity [37]: 29%
Drug uptake [39]: 0 µg
Drug uptake [40]: 0.001 ng
Drug uptake [41]: 0.009 µg
Drug uptake [42]: 0.013 ng
Drug uptake [43]: 0.019 µg
Drug uptake [44]: 8.4 ng
Drug uptake [48]: 0.015 µg
Drug uptake [49]: 18.62 ng
Drug uptake [51]: 0.774 mg/mL
Drug uptake [52]: 0.007 µg
SMILES: CCCCCCCC[C@H]1CCC(=O)O1
Activity [8]: Active
Activity [13]: Active
Activity [15]: 33.65%
Activity [18]: Dose-dependent effect
Activity [24]: Non-toxic
Activity [27]: 13.58%
fold change (FC) [29]: 1.5
Activity [31]: 19.37%
Activity [33]: Active
Activity [34]: Active
Activity [38]: Active
Activity [45]: Active
fold change (FC) [46]: 2.5
Activity [47]: Active
Activity [50]: 10.51%
